Measured values taken from PMC3127118, “Characterization of a Deswapped Triple Mutant Bovine Odorant Binding Protein” (2011).

Target: T1, GCC-bOBP (monomeric triple mutant of bovine odorant binding protein) (Bos taurus, UniProt P07435, W64C/INS121G/H155C)
T1 construct: GCC-bOBP, deswapped monomeric triple mutant
T1 sequence (P07435 with tags, fused parts or gaps W64C/INS121G/H155C): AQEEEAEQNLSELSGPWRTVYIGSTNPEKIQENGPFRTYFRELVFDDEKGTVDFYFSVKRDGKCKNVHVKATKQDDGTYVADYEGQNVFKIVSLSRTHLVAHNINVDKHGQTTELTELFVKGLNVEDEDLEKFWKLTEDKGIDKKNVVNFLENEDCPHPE
Assay: fluorescence titration (direct AMA fluorescence, excitation […] nm; FRET from Trp, excitation […] nm, gave Kd […]), pH […] °C

`Nc1cccc2cc3ccccc3cc12` [AMA, 1-aminoanthracene] gave a Kd of 5 ± 0.2 µM.
